According to the CheMixHub viscosity set:

Assay: xn = mol fraction of the nth substance listed

COCCOCCOC + CCCOC(C)=O
viscosity [mPa·s], 101.3 kPa
Conditions	298.15 K	308.15 K	318.15 K
x1 = 0.0296	0.567	0.499	0.447
x1 = 0.076	0.586	0.515	0.46
x1 = 0.0957	0.594	0.521	0.467
x1 = 0.1388	0.611	0.534	0.478
x1 = 0.1878	0.633	0.551	0.492
x1 = 0.2478	0.656	0.572	0.508
x1 = 0.3236	0.688	0.597	0.528
x1 = 0.3893	0.716	0.619	0.544
x1 = 0.4382	0.736	0.635	0.557
x1 = 0.5153	0.769	0.662	0.579
x1 = 0.5945	0.805	0.691	0.603
x1 = 0.6605	0.835	0.715	0.626
x1 = 0.735	0.87	0.744	0.648
x1 = 0.7756	0.888	0.759	0.659
x1 = 0.8324	0.916	0.779	0.676
x1 = 0.8696	0.933	0.793	0.687
x1 = 0.9082	0.954	0.808	0.699
x1 = 0.9425	0.97	0.822	0.71
x1 = 0.9777	0.988	0.835	0.722
x2 = 0.0101	–	–	0.725
x2 = 0.0103	0.991	0.84	–

CCCCCCN + CCN(CC)CC
viscosity [mPa·s], 101.33 kPa
Conditions	x2 = 0.1014	x2 = 0.1952	x2 = 0.3807	x2 = 0.4897	x2 = 0.5912	x2 = 0.7898	x2 = 0.8946
303.15 K	0.6552	0.6088	0.5322	0.4934	0.4613	0.407	0.3827
313.15 K	0.5654	0.5278	0.4639	0.4323	0.4027	0.3627	0.3436

CCCO + CCO
101 kPa
Conditions	viscosity [mPa·s]
293.15 K, x2 = 0.5	1.564
293.15 K, x2 = 0.75	1.34
298.15 K, x2 = 0.158	1.759
298.15 K, x2 = 0.25	1.64
298.15 K, x2 = 0.303	1.64
298.15 K, x2 = 0.439	1.522
298.15 K, x2 = 0.5	1.407
298.15 K, x2 = 0.566	1.408
298.15 K, x2 = 0.684	1.319
298.15 K, x2 = 0.796	1.233
298.15 K, x2 = 0.902	1.169
303.15 K, x2 = 0.25	1.47
303.15 K, x2 = 0.5	1.26
308.15 K, x2 = 0.25	1.314
308.15 K, x2 = 0.5	1.139
308.15 K, x2 = 0.75	0.99
313.15 K, x2 = 0.25	1.183
313.15 K, x2 = 0.5	1.032
313.15 K, x2 = 0.75	0.903
318.15 K, x2 = 0.5	0.938
318.15 K, x2 = 0.75	0.824
323.15 K, x2 = 0.25	0.969
323.15 K, x2 = 0.5	0.854
323.15 K, x2 = 0.75	0.755

CO + CCO
Conditions	viscosity [mPa·s]
293.15 K, 101 kPa, x1 = 0.25	1.134
293.15 K, 101 kPa, x1 = 0.5	0.809
293.15 K, 101 kPa, x1 = 0.75	0.69
293.15 K, 101.3 kPa, x1 = 0.114	1.1
293.15 K, 101.3 kPa, x1 = 0.263	0.997
293.15 K, 101.3 kPa, x1 = 0.501	0.849
293.15 K, 101.3 kPa, x1 = 0.738	0.712
293.15 K, 101.3 kPa, x1 = 0.856	0.651
298.15 K, 101 kPa, x1 = 0.2045	0.94
298.15 K, 101 kPa, x1 = 0.25	1.032
298.15 K, 101 kPa, x1 = 0.3971	0.832
298.15 K, 101 kPa, x1 = 0.5	0.747
298.15 K, 101 kPa, x1 = 0.5962	0.729
298.15 K, 101 kPa, x1 = 0.75	0.639
298.15 K, 101 kPa, x1 = 0.7975	0.634
298.15 K, 101.33 kPa, x1 = 0.0889	1.045
298.15 K, 101.33 kPa, x1 = 0.146	1.008
298.15 K, 101.33 kPa, x1 = 0.2385	0.95
298.15 K, 101.33 kPa, x1 = 0.3311	0.896
298.15 K, 101.33 kPa, x1 = 0.4041	0.855
298.15 K, 101.33 kPa, x1 = 0.5234	0.791
298.15 K, 101.33 kPa, x1 = 0.6076	0.747
298.15 K, 101.33 kPa, x1 = 0.7136	0.694
298.15 K, 101.33 kPa, x1 = 0.8128	0.643
298.15 K, 101.33 kPa, x1 = 0.9156	0.594
303.15 K, 101 kPa, x1 = 0.25	0.939
303.15 K, 101 kPa, x1 = 0.5	0.69
303.15 K, 101 kPa, x1 = 0.75	0.594
308.15 K, 101 kPa, x1 = 0.2045	0.791
308.15 K, 101 kPa, x1 = 0.25	0.858
308.15 K, 101 kPa, x1 = 0.3971	0.706
308.15 K, 101 kPa, x1 = 0.5	0.638
308.15 K, 101 kPa, x1 = 0.5962	0.625
308.15 K, 101 kPa, x1 = 0.75	0.552
308.15 K, 101 kPa, x1 = 0.7975	0.548
313.15 K, 101 kPa, x1 = 0.25	0.784
313.15 K, 101 kPa, x1 = 0.5	0.593
313.15 K, 101 kPa, x1 = 0.75	0.515
313.15 K, 101.3 kPa, x1 = 0.114	0.77
313.15 K, 101.3 kPa, x1 = 0.263	0.709
313.15 K, 101.3 kPa, x1 = 0.501	0.615
313.15 K, 101.3 kPa, x1 = 0.738	0.531
313.15 K, 101.3 kPa, x1 = 0.856	0.491
318.15 K, 101 kPa, x1 = 0.2045	0.667
318.15 K, 101 kPa, x1 = 0.25	0.718
318.15 K, 101 kPa, x1 = 0.3971	0.599
318.15 K, 101 kPa, x1 = 0.5	0.551
318.15 K, 101 kPa, x1 = 0.5962	0.531
318.15 K, 101 kPa, x1 = 0.75	0.482
318.15 K, 101 kPa, x1 = 0.7975	0.474
323.15 K, 101 kPa, x1 = 0.25	0.661
323.15 K, 101 kPa, x1 = 0.5	0.513
323.15 K, 101 kPa, x1 = 0.75	0.452

COC(=O)OC + CCO
101.3 kPa
Conditions	viscosity [mPa·s]
293.15 K, x1 = 0.0498	1.07
293.15 K, x1 = 0.0978	0.974
293.15 K, x1 = 0.176	0.853
293.15 K, x1 = 0.2928	0.74
293.15 K, x1 = 0.4053	0.675
293.15 K, x1 = 0.4981	0.646
293.15 K, x1 = 0.5982	0.625
293.15 K, x1 = 0.6962	0.613
293.15 K, x1 = 0.8024	0.609
293.15 K, x1 = 0.8894	0.607
293.15 K, x1 = 0.9516	0.618
298.15 K, x1 = 0.0598	0.966
298.15 K, x1 = 0.095	0.897
298.15 K, x1 = 0.1692	0.786
298.15 K, x1 = 0.2725	0.685
298.15 K, x1 = 0.3854	0.625
298.15 K, x1 = 0.4778	0.594
298.15 K, x1 = 0.5686	0.573
298.15 K, x1 = 0.6777	0.561
298.15 K, x1 = 0.7915	0.555
298.15 K, x1 = 0.8775	0.556
298.15 K, x1 = 0.9366	0.565
303.15 K, x1 = 0.0673	0.832
303.15 K, x1 = 0.1142	0.752
303.15 K, x1 = 0.2249	0.627
303.15 K, x1 = 0.2894	0.588
303.15 K, x1 = 0.3906	0.541
303.15 K, x1 = 0.4848	0.521
303.15 K, x1 = 0.5996	0.512
303.15 K, x1 = 0.6931	0.513
303.15 K, x1 = 0.8038	0.512
303.15 K, x1 = 0.9072	0.52
303.15 K, x1 = 0.9462	0.527
313.15 K, x1 = 0.0504	0.731
313.15 K, x1 = 0.0934	0.662
313.15 K, x1 = 0.2082	0.535
313.15 K, x1 = 0.3087	0.472
313.15 K, x1 = 0.393	0.45
313.15 K, x1 = 0.5026	0.44
313.15 K, x1 = 0.6011	0.438
313.15 K, x1 = 0.7052	0.44
313.15 K, x1 = 0.7968	0.445
313.15 K, x1 = 0.9075	0.463
313.15 K, x1 = 0.9507	0.475
